Reference: US9447083B2, “N-acylhydrazone derivatives for selective T cell inhibitor and anti-lymphoid malignancy drug” (CHONG KUN DANG PHARMACEUTICAL CORP., priority 2012, dated 2016)
Like-named read-outs stand apart in the source and are kept apart here.

System: Jurkat T cells
Assay: Pro-apoptotic activity on Jurkat T cells (FITC-Annexin V / 7-AAD flow cytometry)
Type: cell-based
Conditions: Homo sapiens, 72 hours, cells stained with FITC-Annexin V and 7-AAD among total cells
Experimental: In order to investigate the effects of the prepared compounds, the apoptosis-inducing effects of the compounds on human T cell acute lymphoblastic leukemia cell line, Jurkat T cells, were evaluated in the following manner.
Jurkat T cells cultured in RPMI medium containing 10% fetal bovine serum (FBS) were collected and stained with trypan blue (Sigma). […] Then, the cells were centrifuged at 1200 rpm at room temperature for 5 minutes and re-suspended in 10% FBS-containing RPMI medium at a concentration of 1.5×10^5 cells/mL. 200 μL of the cell suspension was dispensed into each well of a flat bottom 96-well plate (Costar). Then, the cells were treated with 10 μL of the diluted compounds in RPMI medium at final concentrations of […] or 5 μM, and incubated in a 5% CO2 incubator at 37° C. for 72 hours. In a vehicle control group, the cells were treated with 10 μL of RPMI medium containing 1% of dimetylsulfoxide (DMSO, Sigma). The incubated cells were harvested, put into 5-mL FACS tubes (BD Falcon), washed with 1 mL of phosphate buffered saline (PBS), and then re-suspended in 0.1 mL of binding buffer (10 mM Hepes-NaOH, pH 7.4, 140 mM NaCl, […] CaCl2). The suspended cells were stained with fluorescein isothiocyanate (FITC)-Annexin V (BD Biosciences) and 7-amino-actinomycin D (7-AAD, e-Biosciences) at room temperature for 15 minutes. The stained cells were suspended in 0.3 mL of binding buffer and analyzed by a flow cytometer. Apoptosis was determined by the ratio (%) of cells stained with FITC-Annexin V and 7-AAD among the total cells (see Tables 10 and 11).

[1] = read-out: Cell Apoptosis Effect to Jurkat T Cell (% in 5 μM)
[2] = read-out: Jurkat T Cell Apoptosis (% in 5 μM)

Row | Structure (SMILES) | cytotoxicity at 5 µM [1] | cytotoxicity at 5 µM [2]
1 | Cc1ccnc(C)c1OCC(=O)N/N=C/c1cccc2[nH]ccc12 [Compound 190, (E)-N′-((1H-indol-4-yl)methylene)-2-(2,4-dimethylpyridin-3-yloxy)acetohydrazide] | 100% | 
2 | Cc1ccnc(C)c1OCC(=O)N/N=C/c1ccc2cc[nH]c2c1 [Compound 191] | 100% | 
3 | O=C(COc1ccccc1C(F)(F)F)N/N=C/c1cccc2[nH]ccc12 [Compound 192, (E)-N′-((1H-indol-4-yl)methylene)-2-(2-(trifluoromethyl)phenoxy)acetohydrazide] | 90% | 
4 | O=C(COc1ccccc1C(F)(F)F)N/N=C/c1ccc2[nH]ccc2c1 [Compound 193] | 100% | 
5 | O=C(COc1ccccc1C(F)(F)F)N/N=C/c1ccc2cc[nH]c2c1 [Compound 194] | 100% | 
6 | Cc1cc(C)c(OCC(=O)N(CCO)/N=C/c2ccc3cc[nH]c3c2)c(C)c1 [Compound 195, (E)-N′-((1H-indol-6-yl)methylene)-N-(2-hydroxyethyl)-2-(mesityloxy)acetohydrazide] | 100% | 
7 | O=C(COc1cccnc1Cl)N/N=C/c1cccc2[nH]ccc12 [Compound 196, (E)-N′-((1H-indol-4-yl)methylene)-2-(2-chloropyridin-3-yloxy)acetohydrazide] | 100% | 
8 | Cc1cc(C)c(OCC(=O)N(CCN2CCOCC2)/N=C/c2ccc3cc[nH]c3c2)c(C)c1 [Compound 198] | 100% | 
9 | Cc1cc(C)c(OCC(=O)N(CCN2CCCC2)/N=C/c2ccc3cc[nH]c3c2)c(C)c1 [Compound 201] | 100% | 
10 | Cc1cc(C)c(OCC(=O)N/N=C/c2ccc3[nH]cnc3c2)c(C)c1 [Compound 205] | 100% | 
11 | Cc1cc(C)c(OCC(=O)N/N=C/c2ccc3snnc3c2)c(C)c1 [Compound 206] | 100% | 
12 | Cc1cc(C)c(OCC(=O)N/N=C/c2cccc3[nH]cc(CN4CCC(C)CC4)c23)c(C)c1 [Compound 211] | 100% | 
13 | Cc1cc(C)c(OCC(=O)N/N=C/c2ccc3cc[nH]c3c2)c(-c2ccncc2)c1 [Compound 217, (E)-N′-((1H-indol-6-yl)methylene)-2-(2,4-dimethyl-6-(pyridin-4-yl)phenoxy)acetohydrazide] | 100% | 
14 | Cc1cc(C)c(OCC(=O)N/N=C/c2ccc3cc[nH]c3c2)c(-c2ccoc2)c1 [Compound 218, (E)-N′-((1H-indol-6-yl)methylene)-2-(2-(furan-3-yl)-4,6-dimethylphenoxy)acetohydrazide] | 100% | 
15 | Cc1cc(CO)cc(C)c1OCC(=O)N/N=C/c1cccc2[nH]ccc12 [Compound 227, (E)-N′-((1H-indol-4-yl)methylene)-2-(4-(hydroxymethyl)-2,6-dimethylphenoxy)acetohydrazide] | 90% | 
16 | Cc1cc(CO)cc(C)c1OCC(=O)N/N=C/c1ccc2cc[nH]c2c1 [Compound 228, (E)-N′-((1H-indol-6-yl)methylene)-2-(4-(hydroxymethyl)-2,6-dimethylphenoxy)acetohydrazide] | 100% | 
17 | Cc1cc(N)cc(C)c1OCC(=O)N/N=C/c1cccc2[nH]ccc12 [Compound 232, (E)-N′-((1H-indol-4-yl)methylene)-2-(4-amino-2,6-dimethylphenoxy)acetohydrazide] | 100% | 
18 | Cc1cc(C)c(OCC(=O)N(CO)/N=C/c2ccc3cc[nH]c3c2)c(C)c1 [Compound 233, (E)-N′-((1H-indol-6-yl)methylene)-N-(hydroxymethyl)-2-(mesityloxy)acetohydrazide] | 100% | 
19 | Cc1cc(C)c(OCC(=O)N(COC(=O)CN(C)C)/N=C/c2ccc3cc[nH]c3c2)c(C)c1 [Compound 236, (E)-(2-((1H-indol-6-yl)methylene)-1-(2-(mesityloxy)acetyl)hydrazinyl)methyl 2-(dimethylamino)acetate] | 100% | 
20 | Cc1cc(C#N)cc(C)c1OCC(=O)N/N=C/c1ccc2cc[nH]c2c1 [Compound 237, (E)-N′-((1H-indol-6-yl)methylene)-2-(4-cyano-2,6-dimethylphenoxy)acetohydrazide] | 100% | 
21 | Cc1cc(C)c(OCC(=O)N(COC(=O)CN(C)C)/N=C/c2cccc3[nH]ccc23)c(C)c1 [Compound 238, (E)-(2-((1H-indol-4-yl)methylene)-1-(2-(mesityloxy)acetyl)hydrazinyl)methyl 2-(dimethylamino)acetate] | 100% | 

Row | Structure (SMILES) | cytotoxicity at 5 µM [1] | cytotoxicity at 5 µM [2]
22 | Cc1cc(C(N)=O)cc(C)c1OCC(=O)N/N=C/c1ccc2cc[nH]c2c1 [Compound 239] | 100% | 
23 | CC(=O)N(/N=C/c1ccc2cc[nH]c2c1)C(=O)COc1c(C)cc(C)cc1C [Compound 243, (E)-N′-((1H-indol-6-yl)methylene)-N-acetyl-2-(mesityloxy)acetohydrazide] | 100% | 
24 | Cc1cc(C)c(OCC(=O)N(CO)/N=C/c2cccc3[nH]ccc23)c(C)c1 [Compound 244, (E)-N′-((1H-indol-4-yl)methylene)-N-(hydroxymethyl)-2-(mesityloxy)acetohydrazide] | 100% | 
25 | Cc1cc(C)c(OCC(=O)N(COC(=O)c2ccc(CN3CCOCC3)cc2)/N=C/c2cccc3[nH]ccc23)c(C)c1 [Compound 245, (E)-(2-((1H-indol-4-yl)methylene)-1-(2-(mesityloxy)acetyl)hydrazinyl)methyl 4-(morpholinomethyl)benzoate] | 100% | 
26 | CC(=O)OCN(/N=C/c1ccc2cc[nH]c2c1)C(=O)COc1c(C)cc(C)cc1C [Compound 252, (E)-(2-((1H-indol-6-yl)methylene)-1-(2-(mesityloxy)acetyl)hydrazinyl)methyl acetate] | 100% | 
27 | Cc1cc(C)c(OCC(=O)N/N=C/c2ccc3c(Br)c[nH]c3c2)c(C)c1 [Compound 256] | 100% | 
28 | Cc1cccc(C)c1OCC(=O)N/N=C/c1ccc2cc[nH]c2c1 [Compound 258, (E)-N′-((1H-indol-6-yl)methylene)-2-(2,6-dimethylphenoxy)acetohydrazide] | 100% | 
29 | Cc1cc(C)c(OCC(=O)N/N=C/c2cccc3[nH]ccc23)c(Br)c1 [Compound 259, (E)-N′-((1H-indol-4-yl)methylene)-2-(2-bromo-4,6-dimethylphenoxy)acetohydrazide] |  | 100%
30 | Cc1cc(C)c(OCC(=O)N/N=C/c2ccc3cc[nH]c3c2)c(Br)c1 [Compound 260, (E)-N′-((1H-indol-6-yl)methylene)-2-(2-bromo-4,6-dimethylphenoxy)acetohydrazide] |  | 100%
31 | Cc1cc(C)c(OCC(=O)N(COC(=O)c2ccc(CN3CCOCC3)cc2)/N=C/c2ccc3cc[nH]c3c2)c(C)c1 [Compound 272, (E)-(2-((1H-indol-6-yl)methylene)-1-(2-(mesityloxy)acetyl)hydrazinyl)methyl 4-(morpholinomethyl)benzoate] |  | 100%
32 | Cc1ccccc1OCC(=O)N/N=C/c1ccc2cc[nH]c2c1 [Compound 279] |  | 100%
33 | Cc1cc(C)c(OCC(=O)N/N=C/c2cccc3c2ccn3S(=O)(=O)c2ccccc2)c(C)c1 [Compound 280, (E)-2-(mesityloxy)-N′-((1-(phenylsulfonyl)-1H-indol-4-yl)methylene)acetohydrazide] |  | 100%
34 | Cc1cc(OCC(=O)N/N=C/c2cccc3[nH]ccc23)cc(C)n1 [Compound 286, (E)-N′-((1H-indol-4-yl)methylene)-2-(2,6-dimethylpyridin-4-yloxy)acetohydrazide] |  | 100%
35 | Cc1cc(OCC(=O)N/N=C/c2ccc3cc[nH]c3c2)cc(C)n1 [Compound 288] |  | 90%
36 | Cc1ncccc1OCC(=O)N(CO)/N=C/c1cccc2[nH]ccc12 [Compound 289] |  | 100%
37 | Cc1cc(F)ccc1OCC(=O)N/N=C/c1ccc2cc[nH]c2c1 [Compound 291, (E)-N′-((1H-indol-6-yl)methylene)-2-(4-fluoro-2-methylphenoxy)acetohydrazide] |  | 100%
38 | CCc1nc(C)ccc1OCC(=O)N/N=C/c1ccc2cc[nH]c2c1 [Compound 293, (E)-N′-((1H-indol-6-yl)methylene)-2-(2-ethyl-6-methylpyridin-3-yloxy)acetohydrazide] |  | 100%
39 | Cc1cc(OCC(=O)N/N=C/c2cccc3[nH]ccc23)nc(C)n1 [Compound 301, (E)-N′-((1H-indol-4-yl)methylene)-2-(2,6-dimethylpyrimidin-4-yloxy)acetohydrazide] |  | 100%
40 | COc1ccc(OCC(=O)N/N=C/c2cccc3[nH]ccc23)c(C(C)(C)C)c1 [Compound 302, (E)-N′-((1H-indol-4-yl)methylene)-2-(2-tert-butyl-4-methoxyphenoxy)acetohydrazide] |  | 100%
41 | COc1ccc(OCC(=O)N/N=C/c2ccc3cc[nH]c3c2)c(C(C)(C)C)c1 [Compound 303] |  | 100%
42 | Cc1ncccc1OCC(=O)N/N=C/c1ccc2cc[nH]c2c1 [Compound 304, (E)-N′-((1H-indol-6-yl)methylene)-2-((2-methylpyridin-3-yl)oxy)acetohydrazide] |  | 90%
